Reference: patent US20260317324A1, “BIFUNCTIONAL COMPOUNDS FOR DEGRADING BRAF VIA UBIQUITIN PROTEOSOME PATHWAY” (Nurix Therapeutics, Inc., priority 2023, published 2026)

Target: T1, BRAF V600E (Homo sapiens, UniProt P15056, V600E)
T1 construct: endogenous C-terminal HiBiT fusion tag on BRAF V600E allele; endogenous in cells; host or cells: A375 clone 1F10 (CRISPR-Cas9 knock-in of the HiBiT tag; parental A375 from ATCC)
Test: BRAF HiBiT degradation assay, C-terminal HiBiT-tagged BRAF V600E A375 cells (clone 1F10), Nano-Glo HiBiT Lytic assay
Assay type: cell-based
Details: for Dmax: A-375
From the text: An A375 cell line expressing a homozygous V600E mutation was purchased from ATCC (Manassas, VA, USA). An A375 clone 1F10 cell line with an endogenous C-terminal HiBiT fusion tag on BRAF V600E allele was generated internally using CRISPR-Cas9 technology and cultured in DMEM, high glucose supplemented with 10% FBS and 1× GlutaMAX. A HCT-116 BRAF−/− cell line overexpressing the C-terminal HiBiT-tagged G466V, G469A, and D594G mutants were generated by lentiviral transduction, externally at Biosettia Inc (San Diego, CA, USA). The stably transfected cells were cultured in RPMI media supplemented with 10% FBS, 1× GlutaMAX, and 0.25 μg/ml puromycin. DMEM medium, RPMI 1640 medium, GlutaMAX, fetal bovine serum (FBS), and puromycin were purchased from Gibco (Grand Island, NY, USA). HCT-116 BRAF−/− cells were purchased from Horizon Discovery (Waterbeach, UK).
The C-terminal HiBiT tagged BRAF A375 cells (monoclonal cell line, cell clone 1F10) were seeded at a density of 10,000 cells/well in 30 μL media (DMEM, high glucose supplemented with 10% FBS and 1× GlutaMAX) in white opaque 384-well plates (Corning #3570) from column 1 to column 23. The wildtype A375 cells were seeded in column 24 at the same cell density in 30 μL media. Cells were incubated at 37° C. with 5% CO2 for 24 h.
Intermediate compound dilution series (5-point, ranging from 5 mM to 0.5 μM, 10-fold dilutions in DMSO) were prepared in a source plate (Beckman Coulter cat. no. 001-16128). Final compound dilution series (11-point, ranging from 1 μM to 0.01 nM, half-log dilutions in DMSO) were stamped into the assay plate (Corning #3570, column 1-11 and 12-22) using the Echo Acoustic Liquid Handler (Beckman Coulter). Each compound was plated in duplicate, and the total volume of compound DMSO solution was 60 nL/well (0.2% final DMSO concentration). DMSO was included in wells A23-L23 and A24-L24. The DMSO-treated HiBiT-tagged samples served as Negative Control (NC) and the DMSO-treated wildtype samples served as Background Control (BC) for the HiBiT assay.
HiBiT signal was measured by a Nano-Glo HiBiT Lytic assay (Promega cat. no. N3050). HiBiT lytic detection reagent (Nano-Glo HiBiT Lytic Buffer with 1:50 Nano-Glo HiBiT Lytic Substrate and 1:100 LgBiT Protein, 40 μL) was added using Bravo. The mixture was incubated at room temperature, in the dark, and with gentle shaking for 10 min. Luminesce units (LU) were read on an EnVision plate reader 2105 (Perkin Elmer).
Percent protein remaining and viability remaining per sample were calculated as follows: […]
% Protein remaining values were plotted as a function of compound concentration. XC50 (DC50) values were determined by fitting curves using the following equation:
For the HiBiT degradation assay, the key parameters reported include: • The dose of compound that produces 50% degradation (DC50 at 50%): • DC50 at 50%: the Fitted X value (Conc.) at Y=50 (response) • Observed Dmax (Obs. Dmax) is the percentage protein degraded at maximal compound effect relative to DMSO-treated control: […]

[1] = A375 (BRAF V600E), DC50 at 50%: fitted conc. at Y=50
[2] = A375 (BRAF V600E), percentage protein degraded at maximal compound effect relative to DMSO

T1 sequence (P15056 whole entry V600E, the tested form may be a part): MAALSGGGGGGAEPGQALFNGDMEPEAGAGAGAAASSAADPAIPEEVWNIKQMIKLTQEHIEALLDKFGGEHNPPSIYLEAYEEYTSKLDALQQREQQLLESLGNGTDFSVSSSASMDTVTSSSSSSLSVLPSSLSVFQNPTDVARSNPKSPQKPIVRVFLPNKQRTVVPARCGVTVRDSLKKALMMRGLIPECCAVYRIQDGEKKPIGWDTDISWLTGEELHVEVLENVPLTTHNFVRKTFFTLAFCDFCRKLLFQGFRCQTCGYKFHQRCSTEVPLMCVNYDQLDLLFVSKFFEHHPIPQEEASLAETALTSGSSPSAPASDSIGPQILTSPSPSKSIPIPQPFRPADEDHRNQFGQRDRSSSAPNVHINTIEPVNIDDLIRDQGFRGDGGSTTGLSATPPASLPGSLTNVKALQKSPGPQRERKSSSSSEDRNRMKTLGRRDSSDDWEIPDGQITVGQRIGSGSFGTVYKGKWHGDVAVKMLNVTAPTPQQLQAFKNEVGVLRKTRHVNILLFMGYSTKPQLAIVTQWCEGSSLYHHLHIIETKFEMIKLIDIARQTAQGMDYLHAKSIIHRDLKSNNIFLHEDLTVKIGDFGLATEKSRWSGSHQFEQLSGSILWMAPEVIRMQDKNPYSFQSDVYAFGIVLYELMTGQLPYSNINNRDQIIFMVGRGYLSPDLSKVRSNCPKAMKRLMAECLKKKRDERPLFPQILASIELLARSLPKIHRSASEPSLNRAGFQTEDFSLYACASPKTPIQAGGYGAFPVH

SMILES	DC50 [1] [nM]	Dmax [2] [%]	DC50 (A375 (BRAF V600E, Class 1), DC50 at 50% degradation) [nM]	Dmax (A375 (BRAF V600E, Class 1), observed Dmax, % protein degraded relative to DMSO control) [%]
CCCS(=O)(=O)Nc1cccc(-c2nc(-c3ccc(N4CCN(C(=O)CC5CCN(c6ccc(C7CCC(=O)NC7=O)cn6)CC5)CC4)cc3)sc2-c2ccnc(N)n2)c1F (racemic) [Compound 189, Rac-N-{3-[5-(2-aminopyrimidin-4-yl)-2-(4-{4-[2-(1-{5-[(3R)-2,6-dioxopiperidin-3-yl]pyridin-2-yl}piperidin-4-yl)acetyl]piperazin-1-yl}phenyl)-1,3-thiazol-4-yl]-2-fluorophenyl}propane-1-sulfonamide]	< 10	> 70	–	–
CCCS(=O)(=O)Nc1cccc(-c2nc(C3CCC4(CC3)CCN(C(=O)C[C@H]3CCN(c5ccc(C6CCC(=O)NC6=O)cc5)C3)CC4)sc2-c2ccnc(N)n2)c1F (mixture of isomers) [Compound 253, N-{3-[5-(2-aminopyrimidin-4-yl)-2-(3-{2-[(3R)-1-{4-[(3RS)-2,6-dioxopiperidin-3-yl]phenyl}pyrrolidin-3-yl]acetyl}-3-azaspiro[5.5]undecan-9-yl)-1,3-thiazol-4-yl]-2-fluorophenyl}propane-1-sulfonamide]	–	–	10 to 50	30 to 70
CCN(C)S(=O)(=O)Nc1cccc(-c2nc(C(C)(C)C)sc2-c2ccnc(Nc3ccc(N4CCN(C(=O)[C@H]5CC[C@H](CN6CCc7ccc(C8CCC(=O)NC8=O)cc7C6)CC5)CC4)cn3)n2)c1F (mixture of isomers) [Compound 124, Rac-(3S)-3-(2-{[(1r,4r)-4-{4-[6-({4-[2-tert-butyl-4-(3-{[ethyl(methyl)sulfamoyl]amino}-2-fluorophenyl)-1,3-thiazol-5-yl]pyrimidin-2-yl}amino)pyridin-3-yl]piperazine-1-carbonyl}cyclohexyl]methyl}-1,2,3,4-tetrahydroisoquinolin-7-yl)piperidine-2,6-dione]	50 to 500	30 to 70	–	–
CCCS(=O)(=O)Nc1cccc(-c2cn(-c3ccc(N4CCN(C(=O)C5CCN(c6ccc(C7CCC(=O)NC7=O)cc6)CC5)CC4)cc3)nc2-c2ccncc2)c1F (racemic) [Compound 26, Rac-N-[3-(1-{4-[4-(1-{4-[(3R)-2,6-dioxopiperidin-3-yl]phenyl}piperidine-4-carbonyl)piperazin-1-yl]phenyl}-3-(pyridin-4-yl)-1H-pyrazol-4-yl)-2-fluorophenyl]propane-1-sulfonamide]	50 to 500	30 to 70	–	–
CCCS(=O)(=O)Nc1cccc(-c2cn(-c3ccc(C(=O)N4CCN(CC5CCN(c6ccc([C@H]7CCC(=O)NC7=O)cc6)CC5)CC4)cc3)nc2-c2ccncc2)c1F [Compound 11, N-{3-[1-(4-{4-[(1-{4-[(3R)-2,6-dioxopiperidin-3-yl]phenyl}piperidin-4-yl)methyl]piperazine-1-carbonyl}phenyl)-3-(pyridin-4-yl)-1H-pyrazol-4-yl]-2-fluorophenyl}propane-1-sulfonamide]	50 to 500	30 to 70	–	–
CCCS(=O)(=O)Nc1cccc(-c2nc(C3CCC4(CC3)CCN(C(=O)CN3CCN(CCCc5cccc6c5C(=O)N(C5CCC(=O)NC5=O)C6=O)CC3)CC4)sc2-c2ccnc(N)n2)c1F (racemic) [Compound 229, Rac-N-{3-[5-(2-aminopyrimidin-4-yl)-2-(3-{2-[4-(3-{2-[(3R)-2,6-dioxopiperidin-3-yl]-1,3-dioxo-2,3-dihydro-1H-isoindol-4-yl}propyl)piperazin-1-yl]acetyl}-3-azaspiro[5.5]undecan-9-yl)-1,3-thiazol-4-yl]-2-fluorophenyl}propane-1-sulfonamide]	> 500	30 to 70	–	–
CCCS(=O)(=O)Nc1cccc(-c2nc(C(C)(C)C)sc2-c2ccnc(NC3CC4(CCN(C(=O)CN5CCN(c6ccc7c(c6)C(=O)N(C6CCC(=O)NC6=O)C7=O)CC5)CC4)C3)n2)c1F (racemic) [Compound 132, Rac-N-(3-{2-tert-butyl-5-[2-({7-[2-(4-{2-[(3R)-2,6-dioxopiperidin-3-yl]-1,3-dioxo-2,3-dihydro-1H-isoindol-5-yl}piperazin-1-yl)acetyl]-7-azaspiro[3.5]nonan-2-yl}amino)pyrimidin-4-yl]-1,3-thiazol-4-yl}-2-fluorophenyl)propane-1-sulfonamide]	10 to 50	30 to 70	–	–
CCCS(=O)(=O)Nc1cccc(-c2nc(C3CCN(C(=O)C4CCN(CC5CCN(c6ccc(C7CCC(=O)NC7=O)cc6)CC5)CC4)CC3)sc2-c2ccnc(N)n2)c1F (racemic) [Compound 228, Rac-N-{3-[5-(2-aminopyrimidin-4-yl)-2-(1-{1-[(1-{4-[(3R)-2,6-dioxopiperidin-3-yl]phenyl}piperidin-4-yl)methyl]piperidine-4-carbonyl}piperidin-4-yl)-1,3-thiazol-4-yl]-2-fluorophenyl}propane-1-sulfonamide]	< 10	> 70	–	–

Results, then the compound that gave them:

DC50 [1] [nM]	Dmax [2] [%]	DC50 (A375 (BRAF V600E, Class 1), DC50 at 50% degradation) [nM]	Dmax (A375 (BRAF V600E, Class 1), observed Dmax, % protein degraded relative to DMSO control) [%]	SMILES
50 to 500	30 to 70	–	–	CCCS(=O)(=O)Nc1cccc(-c2nc(C(C)(C)C)sc2-c2ccnc(NC[C@H]3CCN(CC4CCN(c5ccc(C(=O)N[C@H]6CCC(=O)NC6=O)nc5)CC4)C3)n2)c1F [Compound 143, 5-(4-{[(3R)-3-{[(4-{2-tert-butyl-4-[2-fluoro-3-(propane-1-sulfonamido)phenyl]-1,3-thiazol-5-yl}pyrimidin-2-yl)amino]methyl}pyrrolidin-1-yl]methyl}piperidin-1-yl)-N-[(3S)-2,6-dioxopiperidin-3-yl]pyridine-2-carboxamide]
10 to 50	> 70	–	–	CCCS(=O)(=O)Nc1cccc(-c2nc(C(C)(C)C)sc2-c2ccnc(Nc3ccc(C4CCN(C[C@H]5CC[C@H](Oc6ccc(C7CCC(=O)NC7=O)cn6)CC5)CC4)cc3)n2)c1F (mixture of isomers) [Compound 168, N-{3-[2-tert-butyl-5-(2-{[4-(1-{[(1r,4r)-4-({5-[(3RS)-2,6-dioxopiperidin-3-yl]pyridin-2-yl}oxy)cyclohexyl]methyl}piperidin-4-yl)phenyl]amino}pyrimidin-4-yl)-1,3-thiazol-4-yl]-2-fluorophenyl}propane-1-sulfonamide]
10 to 50	> 70	–	–	CCCS(=O)(=O)Nc1cccc(-c2nc(C)sc2-c2ccnc(Nc3ccc(C4CCN(C(=O)C5CCN(c6ccc(C7CCC(=O)NC7=O)cn6)CC5)CC4)cc3)n2)c1F (racemic) [Compound 55, Rac-N-(3-{5-[2-({4-[1-(1-{5-[(3R)-2,6-dioxopiperidin-3-yl]pyridin-2-yl}piperidine-4-carbonyl)piperidin-4-yl]phenyl}amino)pyrimidin-4-yl]-2-methyl-1,3-thiazol-4-yl}-2-fluorophenyl)propane-1-sulfonamide]
10 to 50	30 to 70	–	–	CCCS(=O)(=O)Nc1cccc(-c2nc(C(C)(C)C)sc2-c2ccnc(Nc3cnn(C4CCN(C(=O)C5CCN(c6ccc(C(=O)NC7CCC(=O)NC7=O)nc6)CC5)CC4)c3)n2)c1F (racemic) [Compound 107, Rac-5-[4-(4-{4-[(4-{2-tert-butyl-4-[2-fluoro-3-(propane-1-sulfonamido)phenyl]-1,3-thiazol-5-yl}pyrimidin-2-yl)amino]-1H-pyrazol-1-yl}piperidine-1-carbonyl)piperidin-1-yl]-N-[(3R)-2,6-dioxopiperidin-3-yl]pyridine-2-carboxamide]
10 to 50	30 to 70	–	–	CCCS(=O)(=O)Nc1cccc(-c2nc(C(C)(C)C)sc2-c2ccnc(Nc3cccc(C4CCN(CC[C@H]5CCN(c6ccc(C7CCC(=O)NC7=O)cn6)C5)CC4)c3)n2)c1F (mixture of isomers) [Compound 74, N-{3-[2-tert-butyl-5-(2-{[3-(1-{2-[(3S)-1-{5-[(3RS)-2,6-dioxopiperidin-3-yl]pyridin-2-yl}pyrrolidin-3-yl]ethyl}piperidin-4-yl)phenyl]amino}pyrimidin-4-yl)-1,3-thiazol-4-yl]-2-fluorophenyl}propane-1-sulfonamide]
